Experimental data reported in patent publication US7427608B2, “Protection against and treatment of hearing loss” (The Research Foundation of State University of New York, priority 2001, dated 2008).
Like-named read-outs stand apart in the source and are kept apart here.

What was measured:
[1] = biological target: full length human purified recombinant pp60^c-src (Homo sapiens, UniProt P12931); assay: Inhibition of isolated Src (Lai et al. 1998 assay, intracellular-mimetic conditions); assay type: biochemical
Sequence of full length human purified recombinant pp60^c-src (P12931 whole entry): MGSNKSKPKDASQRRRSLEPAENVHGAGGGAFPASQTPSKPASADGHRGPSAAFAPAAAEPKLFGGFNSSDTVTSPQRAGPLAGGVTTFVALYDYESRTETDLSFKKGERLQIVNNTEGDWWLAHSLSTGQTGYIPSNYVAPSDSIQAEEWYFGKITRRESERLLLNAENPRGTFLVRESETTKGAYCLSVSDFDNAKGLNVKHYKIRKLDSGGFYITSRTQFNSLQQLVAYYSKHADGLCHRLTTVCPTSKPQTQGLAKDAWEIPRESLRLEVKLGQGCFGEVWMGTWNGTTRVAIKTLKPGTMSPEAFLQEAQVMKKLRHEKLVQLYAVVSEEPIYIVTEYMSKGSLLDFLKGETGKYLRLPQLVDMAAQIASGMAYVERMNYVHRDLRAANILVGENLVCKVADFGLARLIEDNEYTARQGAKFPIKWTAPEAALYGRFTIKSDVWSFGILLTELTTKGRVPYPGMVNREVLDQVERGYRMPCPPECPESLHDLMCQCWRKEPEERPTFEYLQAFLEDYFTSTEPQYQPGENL
Description: Subsequent to synthesis, several of the above compounds were tested for inhibition of the growth of human lung cancer cell line H460 and inhibition of isolated Src.

[2] = test system: human lung cancer cell line H460; assay: Inhibition of growth of human lung cancer cell line H460; assay type: cell-based; conditions: NCI-H460, 72 hours, total protein/well
Description: The results are in Table 2, below.

[3] = mouse, in vivo, ip
Description: These compounds were administered to SCID mice by intraperitoneal administration in tween80:EtOH.

[4] = biological target: T1, protein tyrosine phosphatase 1B (PTP-1B) (Homo sapiens, UniProt P18031); assay: Inhibition of PTP-1B; assay type: biochemical; conditions: compound at 10 micromolar
T1 sequence (P18031 1-435): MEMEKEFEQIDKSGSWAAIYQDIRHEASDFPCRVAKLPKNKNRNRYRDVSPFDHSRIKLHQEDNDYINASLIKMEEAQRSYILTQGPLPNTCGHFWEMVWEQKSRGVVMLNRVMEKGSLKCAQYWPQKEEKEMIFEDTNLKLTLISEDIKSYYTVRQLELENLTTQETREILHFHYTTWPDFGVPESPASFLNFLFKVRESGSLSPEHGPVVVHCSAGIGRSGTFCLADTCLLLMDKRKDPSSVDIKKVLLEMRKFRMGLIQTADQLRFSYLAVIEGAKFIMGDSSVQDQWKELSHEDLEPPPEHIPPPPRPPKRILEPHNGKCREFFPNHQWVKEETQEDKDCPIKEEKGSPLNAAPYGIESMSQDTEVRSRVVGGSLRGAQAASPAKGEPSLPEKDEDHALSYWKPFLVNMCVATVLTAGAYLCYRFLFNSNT
Description: (§1) Blanks for a particular enzyme indicate that inhibition was not found.

[5] = biological target: Epidermal Growth Factor Receptor Tyrosine Kinase (EGFRTK) (Homo sapiens, UniProt P00533); assay: Inhibition of EGFRTK; assay type: biochemical; conditions: compound at 10 micromolar
Sequence of Epidermal Growth Factor Receptor Tyrosine Kinase (EGFRTK) (P00533 25-1210): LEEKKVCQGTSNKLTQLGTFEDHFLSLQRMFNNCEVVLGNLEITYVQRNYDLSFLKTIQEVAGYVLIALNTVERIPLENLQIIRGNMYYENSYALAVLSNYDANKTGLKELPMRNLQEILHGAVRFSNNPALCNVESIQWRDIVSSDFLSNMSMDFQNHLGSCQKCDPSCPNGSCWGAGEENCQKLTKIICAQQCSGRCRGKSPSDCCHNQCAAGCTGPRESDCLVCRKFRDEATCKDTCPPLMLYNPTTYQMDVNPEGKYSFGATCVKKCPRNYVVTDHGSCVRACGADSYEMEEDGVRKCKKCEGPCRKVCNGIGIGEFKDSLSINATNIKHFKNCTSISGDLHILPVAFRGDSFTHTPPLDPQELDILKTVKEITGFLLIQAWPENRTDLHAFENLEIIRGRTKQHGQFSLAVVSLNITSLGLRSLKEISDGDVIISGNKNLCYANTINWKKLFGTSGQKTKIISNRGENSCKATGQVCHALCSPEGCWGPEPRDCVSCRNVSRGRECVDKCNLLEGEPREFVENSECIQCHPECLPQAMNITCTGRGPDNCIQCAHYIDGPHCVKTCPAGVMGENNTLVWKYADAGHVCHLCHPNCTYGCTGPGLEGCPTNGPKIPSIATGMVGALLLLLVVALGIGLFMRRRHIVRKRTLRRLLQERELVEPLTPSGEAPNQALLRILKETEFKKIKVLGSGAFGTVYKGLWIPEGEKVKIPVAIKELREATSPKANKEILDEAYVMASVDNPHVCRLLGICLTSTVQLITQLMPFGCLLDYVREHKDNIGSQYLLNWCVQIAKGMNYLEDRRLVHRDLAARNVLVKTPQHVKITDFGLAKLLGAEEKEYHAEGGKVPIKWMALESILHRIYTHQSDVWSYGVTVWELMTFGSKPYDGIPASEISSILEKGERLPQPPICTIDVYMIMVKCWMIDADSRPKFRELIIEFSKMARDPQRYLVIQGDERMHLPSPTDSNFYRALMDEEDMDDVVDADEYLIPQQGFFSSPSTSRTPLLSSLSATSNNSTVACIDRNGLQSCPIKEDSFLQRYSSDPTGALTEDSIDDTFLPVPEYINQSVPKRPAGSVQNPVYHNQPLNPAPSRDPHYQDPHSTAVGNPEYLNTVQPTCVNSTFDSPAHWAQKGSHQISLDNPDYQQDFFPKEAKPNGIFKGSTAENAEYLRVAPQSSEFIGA
Description: as §1

p56 lck [6] = biological target: T2, p56 lck (Homo sapiens, UniProt P06239); assay: Inhibition of p56 lck; assay type: biochemical; conditions: compound at 10 micromolar
T2 sequence (P06239 whole entry, species assumed): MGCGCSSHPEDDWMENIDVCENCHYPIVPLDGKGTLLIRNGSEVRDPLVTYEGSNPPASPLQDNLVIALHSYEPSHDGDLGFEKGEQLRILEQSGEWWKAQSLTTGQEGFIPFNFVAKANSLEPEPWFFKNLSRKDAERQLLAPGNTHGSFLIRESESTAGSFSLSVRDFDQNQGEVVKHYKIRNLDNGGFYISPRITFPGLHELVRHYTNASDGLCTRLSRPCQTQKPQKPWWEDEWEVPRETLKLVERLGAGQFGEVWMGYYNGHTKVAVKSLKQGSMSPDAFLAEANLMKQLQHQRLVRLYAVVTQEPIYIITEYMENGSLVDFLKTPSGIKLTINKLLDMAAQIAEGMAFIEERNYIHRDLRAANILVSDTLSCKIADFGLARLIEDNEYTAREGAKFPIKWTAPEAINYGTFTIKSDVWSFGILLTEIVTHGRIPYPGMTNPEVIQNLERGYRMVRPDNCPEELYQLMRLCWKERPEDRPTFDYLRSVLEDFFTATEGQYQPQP
Description: as §1

p55 fyn = p55 fyn (Homo sapiens, UniProt P06241); assay: Inhibition of p55 fyn; assay type: biochemical; conditions: compound at 10 micromolar
Sequence of p55 fyn (P06241 whole entry): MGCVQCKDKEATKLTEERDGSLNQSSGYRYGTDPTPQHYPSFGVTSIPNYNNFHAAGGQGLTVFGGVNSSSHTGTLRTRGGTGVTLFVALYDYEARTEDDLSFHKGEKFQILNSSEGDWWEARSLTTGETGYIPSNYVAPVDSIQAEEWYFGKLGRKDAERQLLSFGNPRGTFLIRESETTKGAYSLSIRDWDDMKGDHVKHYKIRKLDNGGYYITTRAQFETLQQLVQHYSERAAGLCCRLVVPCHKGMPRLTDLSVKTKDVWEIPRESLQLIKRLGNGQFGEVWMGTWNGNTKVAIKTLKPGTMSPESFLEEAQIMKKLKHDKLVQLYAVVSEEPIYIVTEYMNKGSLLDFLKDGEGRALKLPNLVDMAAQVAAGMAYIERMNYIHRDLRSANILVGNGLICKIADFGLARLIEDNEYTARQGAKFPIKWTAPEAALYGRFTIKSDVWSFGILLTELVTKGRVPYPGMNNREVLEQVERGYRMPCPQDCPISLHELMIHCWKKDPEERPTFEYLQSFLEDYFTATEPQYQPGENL
Description: as §1

p56 lck [7] = biological target: T2, p56 lck; conditions: analyzed with the tyrosine kinase p56^lck; cited from earlier work
[8] = test system: ovarian tumor cells (tumor N015) and abdominal carcinoma from patients; assay: Patient tumor cell culture, comparison with cancer drugs; assay type: cell-based, human
Description: The initial non-peptide Src inhibitors have also shown very encouraging results in four different series of cell culture assays. 1) In the NIH 60-tumor cell panel assay, broad activity (as one would expect for a Src inhibitor) was seen against the tumor cell lines, including the prostate lines. […] 3) The Src inhibitors were compared to the cancer drugs etoposide, taxol, doxorubicin, and cisplatin in ovarian tumors from three different patients and an abdominal carcinoma from another patient. […] 5) Two of the Src inhibitors were also tested for inhibition of ts v-Src stimulated LA25 cell growth. […] 6) Two of the Src inhibitors were also tested for inhibition of normal rat kidney cell growth.

Row | Structure (SMILES) | IC50 [2] | inhibition at 10 µM [4] | inhibition at 10 µM [5] | other results
1 | O=C(NCc1cccc(O)c1)c1cc2cc(F)ccc2[nH]1 [Compound 1a] | 35 ± 0.59 µM |  |  | IC50 ([1]; column head: Src at 100 μM, read-out: Src IC50): 40 µM; toxicity in mice (weight loss), MTD study [3]: less toxic in mice than compound 2k from Example 4
2 | O=C(NCc1cc(C(F)(F)F)ccc1F)c1cc2cc(F)ccc2[nH]1 [Compound 1aaa] |  | 12% |  | 
3 | O=C(NCc1ccccc1)c1cc2cc(F)ccc2[nH]1 [Compound 1bb] | 82 ± 3.5 µM |  | 19% | 
4 | O=C(N[C@H](c1ccccc1)[C@H](O)c1ccccc1)c1cc2cc(F)ccc2[nH]1 [Compound 1cc] | 30 ± 0.66 µM |  | 19% | 
5 | COc1ccc(NC(=O)c2cc3cc(F)ccc3[nH]2)cc1CO [Compound 1cccc] | > 100 µM | 20% | 19% | 
6 | O=C(N[C@@H](c1ccccc1)[C@@H](O)c1ccccc1)c1cc2cc(F)ccc2[nH]1 [Compound 1dd] | 33 ± 0.78 µM |  | 41% | 
7 | O=C(NCc1cc(O)cc(OCc2ccccc2)c1)c1cc2cc(F)ccc2[nH]1 [Compound 1dddd] |  | 16% |  | 
8 | COc1cc(CNC(=O)c2cc3cc(F)ccc3[nH]2)cc(OC)c1 [Compound 1hhhh] |  | 17% |  | 
9 | O=C(NCc1ccc(OCc2ccccc2)c(O)c1)c1cc2cc(F)ccc2[nH]1 [Compound 1jjjj] |  | 15% |  | 
10 | O=C(Nc1ccccc1O)c1cc2cc(F)ccc2[nH]1 [Compound 1n] |  |  |  | inhibition at 10 µM (p56 lck [6]): 12%
11 | O=C(NCc1ccc(CO)cc1)c1cc2cc(F)ccc2[nH]1 [Compound 1oooo] | 74 ± 2.7 µM |  | 33% | inhibition at 10 µM (p56 lck [6]): 10%
12 | O=C(Nc1cc(O)cc(O)c1)c1cc2cc(F)ccc2[nH]1 [Compound 1r] |  |  |  | inhibition at 10 µM (p56 lck [6]): 11%
13 | COc1cc(OC)c(CNC(=O)c2cc3cc(F)ccc3[nH]2)c(OC)c1 [Compound 1rr] |  |  |  | inhibition at 10 µM (p56 lck [6]): 12%
14 | O=C(NCc1ccc(Cl)cc1Cl)c1cc2cc(F)ccc2[nH]1 [Compound 1ss] |  | 12% |  | 
15 | O=C(NCc1ccc(F)cc1)c1cc2cc(F)ccc2[nH]1 [Compound 1uuu] |  | 13% |  | inhibition at 10 µM (p55 fyn): 16%
16 | O=C(Nc1ccccc1CO)c1cc2cc(F)ccc2[nH]1 [Compound 1xxx] |  | 12% |  | 
17 | O=C(NCc1ccccc1Cl)c1cc2cc(F)ccc2[nH]1 [Compound 1yy] |  | 10% |  | inhibition at 10 µM (p55 fyn): 12%
18 | O=C(Nc1cccc(CO)c1)c1cc2cc(F)ccc2[nH]1 [Compound 1yyy] | 104 ± 10 µM |  | 11% | 
19 | O=C(NCc1cccc(F)c1)c1cc2cc(F)ccc2[nH]1 [Compound 1z] | 15 ± 1.6 µM |  | 26% | 
20 | COc1ccc(NC(=O)c2[nH]c3ccc(F)cc3c2-c2ccccc2)cc1CO [Compound 2f] | 13 ± 0.46 µM |  | 18% | inhibition at 10 µM (p55 fyn): 11%
21 | O=C(Nc1cccc(O)c1)c1cc2ccc(O)cc2cc1O [Compound 2f] |  |  |  | IC50 ([1]; Example 3 hydroxynaphthalene series, 200 μM ATP, read-out: IC50): 16 µM
22 | O=C(NCc1ccc(Cl)cc1)c1[nH]c2ccc(F)cc2c1-c1ccccc1 [Compound 2gg] |  | 12% |  | 
23 | O=C(NCc1ccccc1F)c1[nH]c2ccc(F)cc2c1-c1ccccc1 [Compound 2s] | 26 ± 0.34 µM |  | 33% | inhibition at 10 µM (p55 fyn): 11%; inhibition at 10 µM (p56 lck [6]): 10%
24 | O=C(NCc1cc(C(F)(F)F)cc(C(F)(F)F)c1)c1[nH]c2ccc(F)cc2c1-c1ccccc1 [Compound 2w] |  | 12% |  | 
25 | Cc1cc(O)c2c(c1)C(=O)c1cc(O)cc(O)c1C2=O [Emodin] |  |  |  | competition with ATP (p56 lck [7]): ATP-competitive
26 | N=c1oc2c(O)cccc2cc1C(=O)Nc1cccc(O)c1 [Iminochromene 9TA, iminochromene 9TA, reference compound] |  |  |  | % Inhibition at 100 μM (std. dev.) ([1]; Example 3 hydroxynaphthalene series and published inhibitors, 100 μM inhibitor, 198 μM ATP): 30 (+/−15) %
27 | COc1cccc2c1C(=O)c1c(O)c3c(c(O)c1C2=O)C[C@@](O)(C(=O)CO)C[C@@H]3O[C@H]1C[C@H](N)[C@H](O)[C@H](C)O1 [doxorubicin] |  |  |  | efficacy relative to other cancer drugs in tumor cell culture [8]: more effective than etoposide and cisplatin
28 | CC(=O)O[C@H]1C(=O)[C@@]2(C)[C@H]([C@H](OC(=O)c3ccccc3)[C@]3(O)C[C@H](OC(=O)[C@H](O)[C@@H](NC(=O)c4ccccc4)c4ccccc4)C(C)=C1C3(C)C)[C@]1(OC(C)=O)CO[C@@H]1C[C@@H]2O [taxol] |  |  |  | efficacy relative to other cancer drugs in tumor cell culture [8]: more effective than etoposide and cisplatin
